Assay results published in patent US20260014232A1, “Pharmaceutical Composition of GLP-1 and GIP Receptor Dual Agonist and Use Thereof” (Jiangsu Hengrui Pharmaceuticals Co., Ltd., priority 2021, published 2026).
Starred links: 1 amine or outer side, 2 acyl side, 3 side chain; linkers in the order of their positions; H or OH if unused. Non-standard residues stand in square brackets, D forms with d. Residues, ends and D or L forms follow the SMILES beside them. Groups on a side chain read outwards from the residue. *: point of attachment. C20 diacid = O=C(O)CCCCCCCCCCCCCCCCCCC(=O)*; γGlu = O=C(O)[C@H](CCC(=O)[*:2])N[*:1]; AEEA = NCCOCCOCC(=O)O; Aib = CC(C)(N)C(=O)O

Assay: Food intake of diet-induced-obesity (DIO) mice
Type: in vivo, C57BL/6 mice
Procedure: High-fat food-induced-obesity male C57BL/6 mice (weighing 35-55 g, aged 10-12 weeks, purchased from Shanghai Jiesijie Laboratory Animal Co., Ltd.) were tested. […] According to the experimental design, the body weight of each mouse was measured and recorded on day 0, day 3, day 6, and so on to day 27, the average body weight of each group of mice was calculated, and body weight change curves were plotted by taking the body weight on the first day as the standard. At the end, the fat and other visceral organs of each part of the mice were taken out and weighed, and the viscera/brain ratio for fat in each part of each mouse was calculated. The effect of the drug on the fat was determined by comparing the change in the viscera/brain ratio for fat of different parts of each group of mice.
The food intake of mice in each group was measured daily during the experiment.

Question: What does the source list for CC[C@H](C)[C@H](NC(=O)[C@H](CCCCN)NC(=O)[C@H](CCC(=O)O)NC(=O)[C@H](CCCCNC(=O)COCCOCCNC(=O)COCCOCCNC(=O)CC[C@H](NC(=O)CCCCCCCCCCCCCCCCCCC(=O)O)C(=O)O)NC(=O)[C@H](Cc1ccc(O)cc1)NC(=O)[C@@H](NC(=O)[C@H](CO)NC(=O)[C@H](Cc1ccc(O)cc1)NC(=O)[C@H](CC(=O)O)NC(=O)[C@H](CO)NC(=O)[C@@H](NC(=O)[C@H](Cc1ccccc1)NC(=O)[C@@H](NC(=O)CNC(=O)[C@H](CCC(=O)O)NC(=O)C(C)(C)NC(=O)[C@@H](N)Cc1ccc(O)cc1)[C@@H](C)O)[C@@H](C)O)[C@@H](C)CC)C(=O)N[C@@H](C)C(=O)N[C@@H](C)C(=O)N[C@@H](CCC(N)=O)C(=O)N[C@@H](CCC(=O)O)C(=O)N[C@@H](Cc1ccccc1)C(=O)N[C@H](C(=O)N[C@@H](CC(N)=O)C(=O)N[C@@H](Cc1c[nH]c2ccccc12)C(=O)N[C@@H](CC(C)C)C(=O)N[C@@H](CC(C)C)C(=O)N[C@@H](C)C(=O)NCC(=O)NCC(=O)N1CCC[C@H]1C(=O)N[C@@H](CO)C(=O)N[C@@H](CO)C(=O)NCC(=O)N[C@@H](C)C(=O)N1CCC[C@H]1C(=O)N1CCC[C@H]1C(=O)N1CCC[C@H]1C(=O)N[C@@H](CO)C(N)=O)C(C)C [Compound 18#] (H-Y[Aib]EGTFTSDYSIYK([AEEA-AEEA-γGlu-C20 diacid])EKIAAQEFVNWLLAGGPSSGAPPPS-NH2)?
Answer: cumulative food intake 28 days after the administration (3 nmol/kg): 58.2 g; cumulative food intake within 5 days after the administration (3 nmol/kg): 7.2 g; daily food intake (3 nmol/kg, day 1, listed as 18 #): 0.6 g; daily food intake (3 nmol/kg, day 1, listed as 18#): 0.6 g; daily food intake (3 nmol/kg, day 2): 1.3 g; daily food intake (3 nmol/kg, day 3): 2 g; daily food intake (3 nmol/kg, day 4): 1.1 g; daily food intake (3 nmol/kg, day 5): 2.2 g; daily food intake (3 nmol/kg, day 6): 2.1 g; daily food intake (3 nmol/kg, day 7): 1.1 g; daily food intake (3 nmol/kg, day 8): 1.6 g; daily food intake (3 nmol/kg, day 9): 2.5 g; daily food intake (3 nmol/kg, day 10): 1.3 g; daily food intake (3 nmol/kg, day 11): 2 g; daily food intake (3 nmol/kg, day 12): 3 g; daily food intake (3 nmol/kg, day 13): 1.8 g; daily food intake (3 nmol/kg, day 14): 2.3 g; daily food intake (3 nmol/kg, day 15): 2.9 g; daily food intake (3 nmol/kg, day 16): 1.5 g; daily food intake (3 nmol/kg, day 17): 2.2 g; daily food intake (3 nmol/kg, day 18): 2.7 g; daily food intake (3 nmol/kg, day 19): 1.7 g; daily food intake (3 nmol/kg, day 20): 2.2 g; daily food intake (3 nmol/kg, day 21): 3.4 g; daily food intake (3 nmol/kg, day 22): 1.8 g; daily food intake (3 nmol/kg, day 23): 2.6 g; daily food intake (3 nmol/kg, day 24): 2.9 g; daily food intake (3 nmol/kg, day 25): 1.8 g; daily food intake (3 nmol/kg, day 26): 2.5 g; daily food intake (3 nmol/kg, day 27): 3.9 g; daily food intake (3 nmol/kg, day 28): 1.3 g; cumulative food intake 28 days after the administration (10 nmol/kg): 46.8 g; cumulative food intake within 5 days after the administration (10 nmol/kg): 3.9 g; daily food intake (10 nmol/kg, day 1, listed as 18 #): 0.3 g; daily food intake (10 nmol/kg, day 1, listed as 18#): 0.3 g; daily food intake (10 nmol/kg, day 2): 0.6 g; daily food intake (10 nmol/kg, day 3): 1.1 g; daily food intake (10 nmol/kg, day 4): 0.7 g; daily food intake (10 nmol/kg, day 5): 1.1 g; daily food intake (10 nmol/kg, day 6): 1.5 g; daily food intake (10 nmol/kg, day 7): 0.8 g; daily food intake (10 nmol/kg, day 8): 1.1 g; daily food intake (10 nmol/kg, day 9): 2 g; daily food intake (10 nmol/kg, day 10): 0.9 g; daily food intake (10 nmol/kg, day 11): 1.8 g; daily food intake (10 nmol/kg, day 12): 2.4 g; daily food intake (10 nmol/kg, day 13): 0.9 g; daily food intake (10 nmol/kg, day 14): 1.7 g; daily food intake (10 nmol/kg, day 15): 3 g; daily food intake (10 nmol/kg, day 16): 1.2 g; daily food intake (10 nmol/kg, day 17): 2.1 g; daily food intake (10 nmol/kg, day 18): 2.9 g; daily food intake (10 nmol/kg, day 19): 1.3 g; daily food intake (10 nmol/kg, day 20): 2 g; daily food intake (10 nmol/kg, day 21): 3.2 g; daily food intake (10 nmol/kg, day 22): 1 g; daily food intake (10 nmol/kg, day 23): 2.3 g; daily food intake (10 nmol/kg, day 24): 2.5 g; daily food intake (10 nmol/kg, day 25): 1.6 g; daily food intake (10 nmol/kg, day 26): 2.2 g; daily food intake (10 nmol/kg, day 27): 3.6 g; daily food intake (10 nmol/kg, day 28): 1 g; cumulative food intake 28 days after the administration (100 nmol/kg): 36.7 g; cumulative food intake within 5 days after the administration (100 nmol/kg): 1.8 g; daily food intake (100 nmol/kg, day 1, listed as 18 #): 0.2 g; daily food intake (100 nmol/kg, day 1, listed as 18#): 0.2 g; daily food intake (100 nmol/kg, day 2): 0.1 g; daily food intake (100 nmol/kg, day 3): 0.4 g; daily food intake (100 nmol/kg, day 4): 0.4 g; daily food intake (100 nmol/kg, day 5): 0.6 g; daily food intake (100 nmol/kg, day 6): 0.7 g
